For series [1], the target named is T1, Free fatty acid receptor 1 (Homo sapiens, UniProt O14842). Briefly: Transactivation of human GPR40 expressed in HEK293 cells at 10 uM after 24 hrs by Elk-Gal4 luciferase reporter assay relative to TAK-875. In kind it is functional, cell-based.
Series [2] concerns the target T1, Free fatty acid receptor 1. As to the kind of experiment: Transactivation of human GPR40 expressed in HEK293 cells after 24 hrs by Elk-Gal4 luciferase reporter assay. In kind it is functional, cell-based.
For series [3], the target named is T2, CYP1A2 (Homo sapiens, UniProt P05177).
T2 sequence (P05177 whole entry): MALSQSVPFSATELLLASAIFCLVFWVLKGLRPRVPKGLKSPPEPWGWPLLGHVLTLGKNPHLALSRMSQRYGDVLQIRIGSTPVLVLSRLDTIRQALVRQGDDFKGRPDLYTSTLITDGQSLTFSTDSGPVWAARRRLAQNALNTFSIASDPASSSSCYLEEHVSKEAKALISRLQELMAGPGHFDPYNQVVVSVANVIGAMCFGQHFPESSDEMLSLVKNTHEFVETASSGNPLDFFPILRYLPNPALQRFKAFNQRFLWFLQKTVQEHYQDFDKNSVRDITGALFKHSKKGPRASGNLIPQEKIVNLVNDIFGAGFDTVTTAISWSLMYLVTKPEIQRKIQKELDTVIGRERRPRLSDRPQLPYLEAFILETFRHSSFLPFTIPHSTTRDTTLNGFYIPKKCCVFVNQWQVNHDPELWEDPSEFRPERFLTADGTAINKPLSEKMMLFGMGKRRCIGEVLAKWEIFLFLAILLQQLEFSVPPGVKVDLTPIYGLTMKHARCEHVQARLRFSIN
As to the kind of experiment: Inhibition of CYP1A2 in human liver microsomes at 10 uM using phenacetin as substrate by LC-MS/MS analysis relative to control. Format: ADME. As to conditions: probe phenacetin. For orientation: Liver microsomes are vesicles of endoplasmic reticulum, rich in cytochrome P450 enzymes.

Series [4] in a line: Induction of 16.8 mM glucose-stimulated insulin secretion in ICR mouse primary pancreatic islets assessed per protein at 10 uM after 1 hr by ELISA (reference value: 1.8 +/- 0.6 ng/ml). In kind it is functional, Pancreatic islet.
Series [5] addresses T3, CYP2D6 (Homo sapiens, UniProt P10635). As to the kind of experiment: Inhibition of CYP2D6 in human liver microsomes at 5 uM using dextromethorphan as substrate by LC-MS/MS analysis relative to control. Format: ADME. Conditions: probe dextromethorphan.
Another series concerns the target CYP2C9 (Homo sapiens, UniProt P11712). Briefly: Inhibition of CYP2C9 in human liver microsomes at 5 uM using diclofenac sodium as substrate by LC-MS/MS analysis relative to control. In kind it is ADME. Conditions: probe diclofenac sodium.
The target of the next series is CYP3A4 (Homo sapiens, UniProt P08684). Briefly: Inhibition of CYP3A4 in human liver microsomes at 5 uM using midazolam as substrate by LC-MS/MS analysis relative to control. In kind it is ADME. As to conditions: probe midazolam.
Chain of CYP3A4 (P08684 whole entry): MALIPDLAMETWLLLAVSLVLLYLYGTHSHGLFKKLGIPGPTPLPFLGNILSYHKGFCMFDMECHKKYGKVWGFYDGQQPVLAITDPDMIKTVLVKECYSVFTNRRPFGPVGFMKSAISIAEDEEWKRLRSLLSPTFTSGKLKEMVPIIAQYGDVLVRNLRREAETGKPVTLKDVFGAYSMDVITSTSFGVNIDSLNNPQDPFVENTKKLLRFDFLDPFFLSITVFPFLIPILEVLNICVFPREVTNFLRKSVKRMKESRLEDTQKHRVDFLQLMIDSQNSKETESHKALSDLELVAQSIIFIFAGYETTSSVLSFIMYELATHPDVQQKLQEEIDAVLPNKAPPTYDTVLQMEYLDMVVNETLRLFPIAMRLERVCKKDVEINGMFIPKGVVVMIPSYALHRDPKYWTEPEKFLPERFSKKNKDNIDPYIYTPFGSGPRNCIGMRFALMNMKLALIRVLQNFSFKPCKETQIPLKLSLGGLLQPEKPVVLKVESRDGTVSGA
For series [6], the target named is T2, CYP1A2. As to the kind of experiment: Inhibition of CYP1A2 in human liver microsomes at 5 uM using phenacetin as substrate by LC-MS/MS analysis relative to control. Format: ADME. As to conditions: probe phenacetin.
In series [7] the test system is Mus musculus. Briefly: Antidiabetic activity in ICR mouse assessed as blood glucose levels at 50 mg/kg, po administered 1 hr prior to glucose challenge measured at 30 mins post glucose challenge (reference value: 227.6 +/- 18.7 mg/dl). In kind it is functional.
The test system of series [8] is Mus musculus. As to the kind of experiment: Antidiabetic activity in ICR mouse assessed as blood glucose levels at 50 mg/kg, po administered 1 hr prior to glucose challenge measured at 60 mins post glucose challenge (reference value: 175.8 +/- 25 mg/dl). In kind it is functional.
Series [9] has as its system Mus musculus. As to the kind of experiment: Antidiabetic activity in ICR mouse assessed as blood glucose levels at 50 mg/kg, po administered 1 hr prior to glucose challenge measured at 120 mins post glucose challenge (reference value: 53.7 +/- 9.9 mg/dl). Format: functional.
For series [10], the system named is Mus musculus. Briefly: Antidiabetic activity in ICR mouse assessed as reduction of blood glucose AUC at 50 mg/kg, po administered 1 hr prior to glucose challenge measured after 120 mins post glucose challenge relative to control. In kind it is functional. More on the design: scale not given: the % may be the effect or the level left.
Series [11] deals with Mus musculus. Briefly: Antidiabetic activity in ICR mouse assessed as blood glucose AUC at 50 mg/kg, po administered 1 hr prior to glucose challenge measured after 120 mins post glucose challenge (reference value: 290 +/ 23.5 mg.hr/dl). Format: functional, organism-based. More on the design: dose 50 mg/kg, time < 2 hr.
Series [12] concerns the target T3, CYP2D6. Briefly: Inhibition of CYP2D6 in human liver microsomes at 2 uM using dextromethorphan as substrate by LC-MS/MS analysis relative to control. As to conditions: probe dextromethorphan.

Chain of CYP2C9 (P11712 whole entry): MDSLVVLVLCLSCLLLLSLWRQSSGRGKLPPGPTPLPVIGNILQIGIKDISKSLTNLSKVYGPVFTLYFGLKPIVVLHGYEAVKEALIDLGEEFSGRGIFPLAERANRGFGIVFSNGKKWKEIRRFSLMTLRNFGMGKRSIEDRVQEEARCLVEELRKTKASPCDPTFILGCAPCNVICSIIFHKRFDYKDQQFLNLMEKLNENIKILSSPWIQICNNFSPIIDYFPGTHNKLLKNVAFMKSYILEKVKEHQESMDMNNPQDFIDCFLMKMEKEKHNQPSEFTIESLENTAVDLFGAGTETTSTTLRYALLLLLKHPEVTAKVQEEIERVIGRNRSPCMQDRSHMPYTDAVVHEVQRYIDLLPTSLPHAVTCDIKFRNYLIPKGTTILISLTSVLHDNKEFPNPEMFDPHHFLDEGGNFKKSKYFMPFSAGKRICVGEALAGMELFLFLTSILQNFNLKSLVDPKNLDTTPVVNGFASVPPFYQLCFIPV
T1 sequence (O14842 whole entry, the tested form may be a part): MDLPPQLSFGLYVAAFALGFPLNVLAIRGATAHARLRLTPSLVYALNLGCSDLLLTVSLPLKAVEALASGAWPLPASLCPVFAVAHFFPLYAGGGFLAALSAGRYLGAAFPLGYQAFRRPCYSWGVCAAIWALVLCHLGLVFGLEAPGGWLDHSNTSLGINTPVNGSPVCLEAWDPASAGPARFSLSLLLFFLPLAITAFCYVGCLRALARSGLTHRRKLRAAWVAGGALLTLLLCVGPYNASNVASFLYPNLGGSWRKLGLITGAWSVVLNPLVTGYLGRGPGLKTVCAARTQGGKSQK
T3 sequence (P10635 whole entry): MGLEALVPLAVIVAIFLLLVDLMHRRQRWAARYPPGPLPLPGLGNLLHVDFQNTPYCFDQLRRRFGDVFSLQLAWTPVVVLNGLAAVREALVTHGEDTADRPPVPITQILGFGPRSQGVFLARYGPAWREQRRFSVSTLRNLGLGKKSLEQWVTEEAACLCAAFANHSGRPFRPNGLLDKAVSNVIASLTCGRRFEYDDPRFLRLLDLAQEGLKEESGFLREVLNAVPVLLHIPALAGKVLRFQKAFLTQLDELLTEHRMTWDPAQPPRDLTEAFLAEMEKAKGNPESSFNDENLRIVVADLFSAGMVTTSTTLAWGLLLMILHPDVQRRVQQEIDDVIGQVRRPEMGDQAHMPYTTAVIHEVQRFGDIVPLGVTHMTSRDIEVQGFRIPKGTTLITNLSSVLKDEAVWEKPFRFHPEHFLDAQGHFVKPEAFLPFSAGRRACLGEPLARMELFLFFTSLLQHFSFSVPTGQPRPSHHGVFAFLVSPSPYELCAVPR

The term EC50 denotes the midpoint of the concentration-response curve. With `O=C(O)C[C@@H]1COc2cc(OCc3cccc(-c4cccc5c4CCN(C(=O)c4ccccc4)C5)c3)ccc21`, in series [1], the Activity is 84.2%. The same molecule gave an EC50 in series [2] of 2200 nM.

Molecule `O=C(O)C[C@@H]1COc2cc(OCc3cccc(-c4ccc5c(c4)CN(C(=O)Cc4ccccc4)C5)c3)ccc21` had an Activity in series [1] of 34.8%.

In the case of `CC(C)(CC(=O)O)c1ccc(OCc2cccc(-c3ccc4c(c3)CN(Cc3ccccc3)C4)c2)cc1`, the Activity in series [1] was 23.8%.

`CC(=O)N1CCc2c(cccc2-c2cccc(COc3ccc4c(c3)OC[C@H]4CC(=O)O)c2)C1`: the Activity in [1] is 43.6%.

As a reminder, the inhibition is the percentage by which the read-out fell short of the control. With `Cc1nc2c([nH]1)c(=O)n(C)c(=O)n2Cc1ccco1` [FURAFYLLINE], the inhibition at 10 µM at CYP1A2 [3] is 71.4%.

Molecule `O=C(O)C[C@@H]1COc2cc(OCc3cccc(-c4ccc5c(c4)CN(C(=O)c4ccccc4)CC5)c3)ccc21` gave an Activity in series [2] of 46%.

In the case of `Cl.O=C(O)C[C@@H]1COc2cc(OCc3cccc(-c4ccc5c(c4)CCN(Cc4ccccc4)C5)c3)ccc21`, the Activity in [1] was 136%; in series [4], 2.9 ng/mL; in the series with Mus musculus [7], 196.2 mg/dL; in the series on Mus musculus [8], 150.2 mg/dL; in the series on Mus musculus [9], 49.9 mg/dL; in the series on Mus musculus [10] it was 13.8%. Further, the EC50 in series [2] is 1200 nM. The inhibition at 5 µM on CYP2D6 [5] is 23.6%; against CYP2C9 it was 16.2%; on CYP3A4 it was 30.7%; at CYP1A2 [6], 20.9%.

Regarding `CC(C)(CC(=O)O)c1ccc(OCc2cccc(-c3ccc4c(c3)CN(Cc3ccccc3)CC4)c2)cc1`, in [1], the Activity was 22.8%.

As to `Cl.O=C(O)C[C@@H]1COc2cc(OCc3cccc(-c4ccc5c(c4)CN(Cc4ccccc4)CC5)c3)ccc21`, the Activity was 108% in [1]; 2.8 ng/mL in series [4]; 214.1 mg/dL in the series with Mus musculus [7]; 172.7 mg/dL with Mus musculus [8]; 58 mg/dL with Mus musculus [9]. In series [2], the EC50 turned out to be 800 nM. Also, the inhibition at 5 µM at CYP2D6 [5] was found to be 39.5%; against CYP2C9, 3.94%; against CYP3A4, 27.6%; on CYP1A2 [6], 25.7%. Besides, the AUC in the series with Mus musculus [11] amounted to 2.81e+06 ng·h/mL.

The molecule `O=C(O)COc1ccc(OCc2cccc(-c3ccc4c(c3)CCN(Cc3ccccc3)C4)c2)cc1` registered an Activity in series [1] of 17.8%.

The molecule `O=C(O)C[C@@H]1COc2cc(OCc3cccc(-c4cccc5c4CCN(Cc4ccccc4)C5)c3)ccc21` came in with an Activity in series [1] of 89.4%. Moreover, in [2], the EC50 stood at 5400 nM.

In turn, `O=C(O)COc1ccc(OCc2cccc(-c3cccc4c3CCN(Cc3ccccc3)C4)c2)cc1` yielded an Activity in [1] of 28.8%.

In [1], `CC(=O)N1CCc2cc(-c3cccc(COc4ccc5c(c4)OC[C@H]5CC(=O)O)c3)ccc2C1` showed an Activity of 5%.

The molecule `O=C(O)C[C@@H]1COc2cc(OCc3cccc(-c4cccc5c4CCN(CCc4ccccc4)C5)c3)ccc21` had an Activity in series [1] of 54.8%.

As for `O=C(O)C[C@@H]1COc2cc(OCc3cccc(-c4ccc5c(c4)CN(C(=O)c4ccccc4)C5)c3)ccc21`, the Activity in series [1] was 60.8%.

In the case of `Cc1cc(OCCCS(C)(=O)=O)cc(C)c1-c1cccc(COc2ccc3c(c2)OC[C@H]3CC(=O)O)c1`, the Activity was 2.1 ng/mL in [4], 155.2 mg/dL in the series on Mus musculus [7], 120 mg/dL in the series on Mus musculus [8] and 49 mg/dL in the series on Mus musculus [9]. Besides, the inhibition at 5 µM on CYP2D6 [5] is 23.2%; at CYP2C9, 21%; against CYP3A4, 34%; against CYP1A2 [6] it was 28%. In the series with Mus musculus [11], the AUC was 2.07e+06 ng·h/mL.

As to `O=C(O)C[C@@H]1COc2cc(OCc3cccc(-c4ccc5c(c4)CN(CCc4ccccc4)C5)c3)ccc21`, the Activity in [1] is 77%.

Regarding `CC(=O)N1Cc2ccc(-c3cccc(COc4ccc5c(c4)OC[C@H]5CC(=O)O)c3)cc2C1`, the Activity in series [1] worked out at 36.8%.

`O=C(O)C[C@@H]1COc2cc(OCc3cccc(-c4ccc5c(c4)CCN(CCc4ccccc4)C5)c3)ccc21` came in with an Activity in series [1] of 85%. The same molecule came in with an EC50 in [2] of 4000 nM.

For the molecule `CCN1CCc2c(cccc2-c2cccc(COc3ccc4c(c3)OC[C@H]4CC(=O)O)c2)C1`, the Activity in series [1] turned out to be 7.8%.

In [1], `O=C(O)COc1ccc(OCc2cccc(-c3ccc4c(c3)CN(Cc3ccccc3)CC4)c2)cc1` gave an Activity of 4.6%.

At CYP2C9, `Nc1ccc(S(=O)(=O)Nc2ccnn2-c2ccccc2)cc1` [SULFAPHENAZOLE] had an inhibition at 5 µM of 94.9%.

In the case of `O=C(O)C[C@@H]1COc2cc(OCc3cccc(-c4ccc5c(c4)CN(Cc4ccccc4)C5)c3)ccc21`, in series [1], the Activity is 89.8%. Besides, in series [2], the midpoint of the response, the EC50, lay at 3000 nM.

With `CC(C)(CC(=O)O)c1ccc(OCc2cccc(-c3cccc4c3CCN(Cc3ccccc3)C4)c2)cc1`, in series [1], the Activity was 90%. In series [2], this molecule showed an EC50 of 800 nM.

`C=C[C@H]1C[N@@]2CC[C@H]1C[C@@H]2[C@@H](O)c1ccnc2ccc(OC)cc12` [QUINIDINE]: the inhibition at 2 µM against CYP2D6 [12] stood at 93.3%.

For `O=C(O)C[C@@H]1COc2cc(OCc3cccc(-c4ccc5c(c4)CN(C(=O)Cc4ccccc4)CC5)c3)ccc21`, the Activity in series [1] was determined as 20.4%.

In turn, `O=C(O)C[C@@H]1COc2cc(OCc3cccc(-c4ccc5c(c4)CCN(C(=O)c4ccccc4)C5)c3)ccc21` came in with an Activity in [1] of 39.8%.

In series [1], `O=C(O)COc1ccc(OCc2cccc(-c3ccc4c(c3)CN(Cc3ccccc3)C4)c2)cc1` showed an Activity of 18.9%.

For the molecule `CC(C)(CC(=O)O)c1ccc(OCc2cccc(-c3ccc4c(c3)CCN(Cc3ccccc3)C4)c2)cc1`, the Activity in [1] is 58.6%.

`O=C(O)C[C@@H]1COc2cc(OCc3cccc(-c4ccc5c(c4)CCN(C(=O)Cc4ccccc4)C5)c3)ccc21` displayed an Activity in series [1] of 31.6%.

Values taken from ChEMBL document CHEMBL4229516, “Design, synthesis and biological evaluation of a series of novel GPR40 agonists containing nitrogen heterocyclic rings” (Bioorg Med Chem Lett, 2018).
